# Legend:
# HepG2 human cells = tested on: HepG2 human cells; design: method as in http://dx.doi.org/10.6019/CHEMBL3507680; conditions: ref http://dx.doi.org/10.6019/CHEMBL3507680; cited from earlier work
# [1] = tested on: P. falciparum 3D7 asexual blood stages; test: Whole-cell time extended asexual growth assay (pLDH); type: cell-based; conditions: Plasmodium falciparum, 72 h; for IC50: dose response retest, read-out: IC50 (µM) Asex stages; for inhibition at 2 µM: primary screen, read-out: %Inh Asex stages @2uM
# Experimental: Asexual activity was assayed via Plasmodium lactate dehydrogenase activity (pLDH), a surrogate of asexual parasite growth. […] 2 µM artesunate and DMSO were used as the positive and negative controls, respectively. […] After plate mixing, NBT reduction was measured by absorbance at 650 nm using Envision (Perkin Elmer).
# [2] = tested on: P. falciparum stage V female gametocytes (female gamete formation); test: P. falciparum dual gamete formation assay (Pf DGFA), female readout (Pfs25 expression), 48 h carry-over format; type: cell-based, Plasmodium falciparum NF54; conditions: Plasmodium falciparum, 48 h incubation
# [3] = tested on: P. falciparum stage V male gametocytes (male gamete formation); test: P. falciparum dual gamete formation assay (Pf DGFA), male readout (exflagellation), 48 h carry-over format; type: cell-based, Plasmodium falciparum NF54; conditions: Plasmodium falciparum, 48 h incubation
# [4] = primary screen, 2 uM, single replicate
Structure (SMILES),%Inh HepG2 @10uM (HepG2 human cells) [%],IC50 [1] [µM],inhibition at 2 µM [1] [%],"IC50 ([2]; 48 h, dose response retest of primary hits, read-out: Female IC50) [nM]","inhibition at 2 µM [2, 4] [%]","IC50 ([3]; 48 h, dose response retest of primary hits, read-out: Male IC50) [nM]","inhibition at 2 µM [3, 4] [%]"
COc1ccc(NC(=O)Cn2nc(C)c(C(C)=O)c2C)cc1 [DDD01027600],2.67,0.298,73.1,5560,< 30,1240,47.3
CCn1cc(CN2CCN(Cc3cc(C)cc(C)c3)C(=O)C2)cc1C#N [DDD01246382],15.63,3.31,37.3,–,–,–,–
CCCn1ncc(-c2ccnc(NC3CC(C)(C)NC(C)(C)C3)n2)c1C [DDD01246448],80.08,4.53,41.5,–,–,–,–
CC1(c2ccccc2)CCCN(Cc2cncn2C2CCCC2)C1 (stereo not shown) [DDD01246491],-13.60,2.95,39.7,–,–,–,–
COc1ccnc(CN2CCCC(CCc3ccc(F)cc3)C2)c1OC (stereo not shown) [DDD01246654],2.04,2.25,51,–,–,–,–
Cc1ccc2[nH]c(-c3cn(C4CCNCC4)nn3)nc2c1C [DDD01246711],-3.44,2.13,63.9,–,–,–,–
CCN1CCN(C[C@@H]2CN(c3ncc(Cl)cc3F)C[C@@H]2CO)CC1 [DDD01246828],-10.90,1.4,82.5,–,–,–,–
N#Cc1cccc(N2CCCC(CO)(CCOc3ccccc3)C2)n1 (stereo not shown) [DDD01247086],8.55,8.09,32,–,–,–,–
CC(C)CN1CCCC1c1ccc(C(=O)Nc2cccnc2)s1 (stereo not shown) [DDD01247321],0.07,3.35,34.5,–,–,–,–
CCn1cc(CN2CCN(Cc3cccc(OC)c3)C(=O)C2)cc1C#N [DDD01247460],-1.17,1.46,76.2,–,–,–,–
COc1ccccc1OCCCc1cccc(C#N)n1 [DDD01247630],-1.85,6.32,36,–,–,–,–
COc1cccc(CN(C)Cc2[nH]c3ccccc3c2C)c1O [DDD01247848],1.38,1.91,91.2,–,–,–,–
CNc1cc(C)nc(NCc2cc(C)cc3c(C)c(C)[nH]c23)n1 [DDD01248198],67.15,1.79,69.2,–,–,–,–
CC(C)c1cc(CN(C)C(=O)C(C)N2CCc3ccccc3C2)no1 (stereo not shown) [DDD01248554],34.35,9.68,36,–,–,–,–
Cc1cccnc1[C@H](C)Nc1nc(-c2cccnc2)nc2c1CNC2 [DDD01248607],-8.07,3.44,50,–,–,–,–
CC(C)Cc1ncc2c(n1)CN(c1nccc(NC(C)C)n1)C2 [DDD01249567],2.52,1.4,92.8,–,–,–,–
Cc1cccc2[nH]c(-c3cn(C4CCNCC4)nn3)nc12 [DDD01250141],-3.11,3.82,34.6,–,–,–,–
CCc1[nH]c2c(CNc3cc(C)nc(NC)n3)cc(C)cc2c1C [DDD01250162],98.31,1.2,55.3,–,–,–,–
CCCc1nc(N(C)CCN2CCCCCC2)c2cnn(C)c2n1 [DDD01250696],-11.00,5.78,32.1,–,–,–,–
Cc1cc2nc(-c3cn(C4CCNCC4)nn3)[nH]c2cc1C [DDD01250700],-2.26,2.49,60.9,–,–,–,–
Cc1cnccc1NCCNC1CCN(CC(C)C)CC1 [DDD01251125],2.02,1.35,98.4,–,–,–,–
Cc1nc(-c2cc(Cl)cc3c2OC(CN)C3)c[nH]1 (stereo not shown) [DDD01251343],11.09,1.97,52.6,–,–,–,–
CCc1[nH]c2c(CNc3nc(C)cc(NC)n3)cc(C)cc2c1C [DDD01251782],99.91,1.78,97.5,–,–,–,–
O=C(NCc1cnn2cccnc12)c1cccc(CC2CCNCC2)c1 [DDD01252275],5.06,2.46,33,–,–,–,–
Cc1cccnc1C(Nc1nccc(C2CCCC2)n1)C1CC1 (stereo not shown) [DDD01252324],0.36,1.71,73.4,–,–,–,–
COc1cccc(OC)c1CN1CC(=O)N(c2ccc(C)cc2)CC1C (stereo not shown) [DDD01252418],1.44,5.59,31.8,–,–,–,–
CCOc1cccc(CN2CCCC(Nc3ccc(F)cc3)C2)c1O (stereo not shown) [DDD01252745],-6.06,3.07,42.7,–,–,–,–

Structure (SMILES),%Inh HepG2 @10uM (HepG2 human cells) [%],IC50 [1] [µM],inhibition at 2 µM [1] [%],"IC50 ([2]; 48 h, dose response retest of primary hits, read-out: Female IC50) [nM]","inhibition at 2 µM [2, 4] [%]","IC50 ([3]; 48 h, dose response retest of primary hits, read-out: Male IC50) [nM]","inhibition at 2 µM [3, 4] [%]"
CNc1cc(C)nc(N2Cc3cnn(Cc4ccc(F)cc4)c3C2)n1 [DDD01252874],11.36,2.61,45.8,–,–,–,–
Cc1nc(NCCSc2ccccn2)c2c(C)noc2n1 [DDD01253053],-4.96,4.44,38.4,–,–,–,–
NCC1Cc2cc(-c3nccc(N4CCC(O)CC4)n3)cc(F)c2O1 (stereo not shown) [DDD01254054],6.33,4.81,76.3,–,–,–,–
CCCc1cncnc1N1CCC(NCc2cc3ccccc3[nH]2)CC1 [DDD01254125],8.09,2.43,35.4,–,–,–,–
CNc1nc(C)cc(NC2CCCN(C3Cc4ccccc4C3)C2)n1 (stereo not shown) [DDD01254555],14.91,1.97,91.2,–,–,–,–
Cc1noc(C)c1CN(C)c1nc(C2CCCC2)nc2c1cnn2C [DDD01254835],9.62,2.56,57.1,–,–,–,–
CNC(=O)c1cn2cc(-c3ccccc3Cl)n(CC=C(C)C)c(=O)c2n1 [DDD01255495],35.09,6.64,43.8,–,–,–,–
Cc1cnc(C)c(N2CCN(CCCc3ccncc3)CC2)n1 [DDD01256723],6.37,3.29,48,–,–,–,–
NCC(=O)N1CCCC1c1ccc(C(=O)NCc2ccoc2)s1 (stereo not shown) [DDD01257217],-2.34,2.73,34.1,–,–,–,–
CSCCNC(=O)c1ccc(OC2CCN(CC(C)(C)C)CC2)c(Cl)c1 [DDD01257510],-7.80,5.38,38.4,–,–,–,–
Cc1nc[nH]c1CN(C)CC1CCCN(CCc2ccc(Cl)cc2)C1 (stereo not shown) [DDD01257555],20.49,2.44,66.5,–,–,–,–
COc1cccc(CN2CCCC(Nc3cccc(F)c3)C2)c1O (stereo not shown) [DDD01257695],-4.92,2.56,55.2,–,–,–,–
CN(Cc1cccc(O)c1)CC1CCCN(CCc2ccc(Cl)cc2)C1 (stereo not shown) [DDD01257948],10.17,1.79,92.9,–,–,–,–
CCC1CN(C(=O)c2ccc(Cl)cc2O)CCN1C(C)C (stereo not shown) [DDD01258121],-6.93,2.83,48.6,–,–,–,–
CCc1c(C)nc2cc(C3CCN(Cc4ccccc4F)C3)nn2c1O (stereo not shown) [DDD01270117],-2.56,6.27,43.5,–,–,–,–
Cc1cc(C)n(C2CN(CC(O)c3cc(F)ccc3F)C2)n1 (stereo not shown) [DDD01298957],6.16,1.27,74.5,–,–,–,–
CCNC(=O)C(C)NC(=O)c1cnc(-c2ccc(C)cc2C)s1 (stereo not shown) [DDD01300473],1.57,2.86,37,–,–,–,–
Cc1nc2ccccc2nc1CN1CCCC1Cn1cccn1 (stereo not shown) [DDD01301355],20.57,8.56,31,–,–,–,–
CN(Cc1ncc(C(C)(C)C)o1)CC1CCCN1c1cccnn1 (stereo not shown) [DDD01301524],23.44,5.73,31.2,–,–,–,–
CC(C)c1cc(NC(=O)c2ccc(C(=O)NC(C)(C)C)cc2)[nH]n1 [DDD01301645],-4.05,4.02,33.2,–,–,–,–
CCC(C)(C)NC(=O)CN(C)C(c1cccc(F)c1)c1ccccn1 (stereo not shown) [DDD01301778],0.64,6.7,30.8,–,–,–,–
Cc1ccc(Cl)cc1N1CCC(CNC(=O)CCn2ccnc2)C1 (stereo not shown) [DDD01302767],-10.10,3.83,33.8,–,–,–,–
COc1ccc(CNCC2CCN(CC(C)O)CC2)c2ccccc12 (stereo not shown) [DDD01302860],29.84,2.69,39.2,–,–,–,–
Cc1cc(C)n(C2CN(CC(O)c3ccc4c(c3)OCO4)C2)n1 (stereo not shown) [DDD01303662],-2.16,7.81,40.2,–,–,–,–
CC(C)c1nn(C)c(Cl)c1CNCC(O)c1cccc(F)c1.Cl (stereo not shown) [DDD01304823],-10.30,3.62,34.2,–,–,–,–
Cc1nc(CN2CCCC(N(C)Cc3c(C)noc3C)C2)no1 (stereo not shown) [DDD01304956],10.61,3.93,31.2,–,–,–,–
O=C1CCCCN1c1cccc(CNC2CCCC2)c1 [DDD01305031],-17.90,6.03,31.2,–,–,–,–

# Source: publication PMC6143625, “A high throughput screen for next-generation leads targeting malaria parasite transmission” (Nature Communications, 2018)
